Assay results published in PubChem BioAssay (NCI).
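The concentration for 50% growth inhibition is given as GI50. TGI marks complete inhibition of growth.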

Key:
Assay in all cases: DTP human tumour cell line panel, 384-well format
[1] = test system: NCI-H460 NSCLC
[2] = test system: SK-MEL-5 melanoma
[3] = test system: TK-10 renal
[4] = test system: NCI-H522 lung
[5] = test system: MDA-MB-468 breast
[6] = test system: MDA-MB-435 melanoma
[7] = test system: COLO 205 colon
[8] = test system: LOX IMVI melanoma
[9] = test system: CAKI-1 renal
[10] = test system: OVCAR-5 ovarian
[11] = test system: NCI/ADR-RES ovarian
[12] = test system: NCI-H226 lung
[13] = test system: IGROV1 ovarian
[14] = test system: HOP-62 NSCLC
[15] = test system: UO-31 renal
[16] = test system: SNB-75 CNS
[17] = test system: EKVX NSCLC
[18] = test system: RXF 393 renal
[19] = test system: SF-295 CNS
[20] = test system: SF-539 CNS
[21] = test system: OVCAR-4 ovarian
[22] = test system: KM12 colon
[23] = test system: 786-0 renal
[24] = test system: SNB-19 CNS
[25] = test system: A498 renal
[26] = test system: K-562 leukemia
[27] = test system: T-47D breast
[28] = test system: M14 melanoma
[29] = test system: MDA-MB-231 breast
[30] = test system: HOP-92 NSCLC
[31] = test system: NCI-H322M lung
[32] = test system: CCRF-CEM leukemia
[33] = test system: UACC-257 melanoma
[34] = test system: HCC-2998 colon
[35] = test system: DU-145 prostate
[36] = test system: OVCAR-3 ovarian
[37] = test system: A549 NSCLC
[38] = test system: OVCAR-8 ovarian
[39] = test system: SR leukemia
[40] = test system: HCT-15 colon
[41] = test system: SN12C renal
[42] = test system: HT29 colon
[43] = test system: BT-549 breast
[44] = test system: NCI-H23 lung
[45] = test system: MCF7 breast
[46] = test system: SK-MEL-28 melanoma
[47] = test system: UACC-62 melanoma
[48] = test system: HL-60(TB) leukemia
[49] = test system: SK-OV-3 ovarian
[50] = test system: MALME-3M melanoma
[51] = test system: RPMI-8226 leukemia
[52] = test system: SF-268 CNS
[53] = test system: MOLT-4 leukemia
[54] = test system: PC-3 prostate
[55] = test system: SW-620 colon
[56] = test system: ACHN renal
[57] = test system: HS 578T breast

Which GI50 [1] does the source give for `Cn1ncc(-c2ccc3c(=O)[nH]nc(CN)c3c2)c1-c1c(F)cc2ccccc2c1C#N` here?
The GI50 was 1.27 µM.

And the TGI [1]?
Its TGI is 11.5 µM.

What about the GI50 [2] of the same molecule?
The GI50 was 1.18 µM.

And the TGI [2]?
Its TGI is 3.27 µM.

And the GI50 [3]?
Its GI50 is 8.98 µM.

And the TGI [3]?
The TGI was 21.2 µM.

What about the GI50 [4] of the same molecule?
The GI50 was 2.37 µM.

What about the TGI [4] of the same molecule?
The TGI was 6.27 µM.

And the GI50 [5]?
Its GI50 is 1.31 µM.

And the TGI [5]?
Its TGI is 3.44 µM.

And the GI50 [6]?
The GI50 was 2.08 µM.

And the TGI [6]?
Its TGI is 4.61 µM.

What about the GI50 [7] of the same molecule?
Its GI50 is 2.9 µM.

And the TGI [7]?
Its TGI is 15.3 µM.

What about the GI50 [8] of the same molecule?
The GI50 was 2.73 µM.

What about the TGI [8] of the same molecule?
The TGI was 11.1 µM.

What about the GI50 [9] of the same molecule?
The GI50 was 3.23 µM.

And the TGI [9]?
The TGI was 13.9 µM.

What about the GI50 [10] of the same molecule?
The GI50 was 4.58 µM.

What about the TGI [10] of the same molecule?
Its TGI is 17.1 µM.

And the GI50 [11]?
Its GI50 is 5.21 µM.

And the TGI [11]?
Its TGI is 25.1 µM.

What about the GI50 [12] of the same molecule?
Its GI50 is 3.4 µM.

What about the TGI [12] of the same molecule?
The TGI was 15.1 µM.

What about the GI50 [13] of the same molecule?
Its GI50 is 3.42 µM.

And the TGI [13]?
The TGI was 14 µM.

What about the GI50 [14] of the same molecule?
The GI50 was 2.41 µM.

And the TGI [14]?
The TGI was 13 µM.

What about the GI50 [15] of the same molecule?
Its GI50 is 6.43 µM.

What about the TGI [15] of the same molecule?
The TGI was 19.6 µM.

What about the GI50 [16] of the same molecule?
The GI50 was 2.55 µM.

What about the TGI [16] of the same molecule?
Its TGI is 10.3 µM.

What about the GI50 [17] of the same molecule?
Its GI50 is 5.14 µM.

And the TGI [17]?
Its TGI is 18.7 µM.

And the GI50 [18]?
Its GI50 is 1.69 µM.

And the TGI [18]?
Its TGI is 8.25 µM.

And the GI50 [19]?
Its GI50 is 4.96 µM.

What about the TGI [19] of the same molecule?
The TGI was 17.2 µM.

And the GI50 [20]?
Its GI50 is 1.84 µM.

What about the TGI [20] of the same molecule?
The TGI was 5.38 µM.

What about the GI50 [21] of the same molecule?
Its GI50 is 1.3 µM.

What about the TGI [21] of the same molecule?
The TGI was 7.5 µM.

And the GI50 [22]?
The GI50 was 2.63 µM.

What about the TGI [22] of the same molecule?
Its TGI is 11.3 µM.

What about the GI50 [23] of the same molecule?
Its GI50 is 2.13 µM.

What about the TGI [23] of the same molecule?
Its TGI is 12.6 µM.

And the GI50 [24]?
Its GI50 is 4.87 µM.

What about the TGI [24] of the same molecule?
Its TGI is 18.8 µM.

And the GI50 [25]?
The GI50 was 2.22 µM.

And the TGI [25]?
The TGI was 11 µM.

And the GI50 [26]?
Its GI50 is 2.11 µM.

What about the TGI [26] of the same molecule?
The TGI was 8.63 µM.

What about the GI50 [27] of the same molecule?
Its GI50 is 1.08 µM.

And the TGI [27]?
The TGI was 6.19 µM.

And the GI50 [28]?
The GI50 was 2.83 µM.

What about the TGI [28] of the same molecule?
Its TGI is 8.76 µM.

What about the GI50 [29] of the same molecule?
The GI50 was 2.1 µM.

What about the TGI [29] of the same molecule?
The TGI was 14.4 µM.

What about the GI50 [30] of the same molecule?
Its GI50 is 1.18 µM.

And the TGI [30]?
Its TGI is 6.91 µM.

And the GI50 [31]?
Its GI50 is 4.74 µM.

What about the TGI [31] of the same molecule?
The TGI was 18.3 µM.

What about the GI50 [32] of the same molecule?
The GI50 was 1.15 µM.

What about the TGI [32] of the same molecule?
Its TGI is 3.04 µM.

And the GI50 [33]?
The GI50 was 2.64 µM.

And the TGI [33]?
The TGI was 8.43 µM.

And the GI50 [34]?
The GI50 was 3.08 µM.

And the TGI [34]?
The TGI was 14 µM.

What about the GI50 [35] of the same molecule?
The GI50 was 3.87 µM.

And the TGI [35]?
The TGI was 14.9 µM.

And the GI50 [36]?
The GI50 was 1.77 µM.

What about the TGI [36] of the same molecule?
The TGI was 5.25 µM.

What about the GI50 [37] of the same molecule?
The GI50 was 2.8 µM.

What about the TGI [37] of the same molecule?
Its TGI is 14 µM.

What about the GI50 [38] of the same molecule?
Its GI50 is 2.59 µM.

And the TGI [38]?
Its TGI is 15.2 µM.

What about the GI50 [39] of the same molecule?
The GI50 was 0.0374 µM.

What about the TGI [39] of the same molecule?
Its TGI is 0.313 µM.

And the GI50 [40]?
The GI50 was 2.28 µM.

And the TGI [40]?
The TGI was 10.8 µM.

And the GI50 [41]?
Its GI50 is 2.17 µM.

And the TGI [41]?
The TGI was 9.35 µM.

And the GI50 [42]?
The GI50 was 2.64 µM.

What about the TGI [42] of the same molecule?
Its TGI is 11.8 µM.

What about the GI50 [43] of the same molecule?
Its GI50 is 2.9 µM.

What about the TGI [43] of the same molecule?
Its TGI is 11 µM.

What about the GI50 [44] of the same molecule?
Its GI50 is 2.19 µM.

And the TGI [44]?
Its TGI is 7.34 µM.

And the GI50 [45]?
Its GI50 is 1.11 µM.

And the TGI [45]?
Its TGI is 9.34 µM.

And the GI50 [46]?
Its GI50 is 3.09 µM.

And the TGI [46]?
Its TGI is 12.6 µM.

And the GI50 [47]?
The GI50 was 2.97 µM.

And the TGI [47]?
The TGI was 14.2 µM.

What about the GI50 [48] of the same molecule?
The GI50 was 1.72 µM.

And the TGI [48]?
Its TGI is 3.29 µM.

What about the GI50 [49] of the same molecule?
The GI50 was 4.57 µM.

What about the TGI [49] of the same molecule?
The TGI was 16.6 µM.

What about the GI50 [50] of the same molecule?
Its GI50 is 1.59 µM.

What about the TGI [50] of the same molecule?
Its TGI is 5.5 µM.

And the GI50 [51]?
The GI50 was 1.45 µM.

What about the TGI [51] of the same molecule?
The TGI was 3.02 µM.

What about the GI50 [52] of the same molecule?
The GI50 was 2.4 µM.

What about the TGI [52] of the same molecule?
Its TGI is 12 µM.

And the GI50 [53]?
Its GI50 is 0.0298 µM.

And the TGI [53]?
The TGI was 0.101 µM.

And the GI50 [54]?
The GI50 was 3.96 µM.

What about the TGI [54] of the same molecule?
Its TGI is 14.7 µM.

And the GI50 [55]?
The GI50 was 2.54 µM.

What about the TGI [55] of the same molecule?
The TGI was 11.5 µM.

What about the GI50 [56] of the same molecule?
The GI50 was 2.3 µM.

And the TGI [56]?
The TGI was 11.2 µM.

And the GI50 [57]?
Its GI50 is 1.76 µM.

What about the TGI [57] of the same molecule?
Its TGI is 4.22 µM.
